The results in this text go back to PubChem BioAssay AID179 (DTP/NCI, 2004).

The test concerns CEM cells HIV-1 protection, formazan growth assay. Description: NCI AIDS Antiviral Assay. The following applies: for IC50: measured here: growth of uninfected CEM cells. The gist of the method:
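Protection of CEM cells against HIV-1 was scored from cell growth (soluble formazan) across five concentrations, with parallel uninfected cells. Lack of protection may reflect toxicity.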

SMILES strings stand for the structures. Active and inactive are the calls of the source.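 The calls were made as follows: active = compounds giving half or more protection of infected cells from virus-caused growth loss, again on retest; inactive = the rest.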 Where a SMILES comes first, the peptide text is derived from it. The star is where a group is joined. Trt = c1ccc(C(c2ccccc2)(c2ccccc2)*)cc1; Benzhydryl = c1ccc(C(c2ccccc2)*)cc1; Cbz = O=C(OCc1ccccc1)*; Boc = CC(C)(C)OC(=O)*; OtBu = CC(C)(C)O*

For `COC(=O)C(Cc1ccccc1)NC(=O)CCCNC(=O)OCc1ccccc1` (configuration not stated), the EC50 (usually the concentration at which the effect is half-maximal) was > 200 µM and the IC50 (commonly the concentration needed to halve the response being measured) came out at 87.1 µM.
For the compound `O=C1CCN=C(NC(=O)C(F)(F)F)N1CCc1c[nH]c2ccccc12`, the EC50 was > 200 µM and the IC50 was > 200 µM.
In the case of `O=C1c2ccccc2C(=O)C2OC12` (configuration not stated), the EC50 was > 20 µM and the IC50 is 0.977 µM.
With `CCOC(=O)c1c(N)sc2c1C(C)(C(=O)OCC)CC2` (configuration not stated), the EC50 is > 200 µM and the IC50 was found to be 141 µM.
In the case of `CCOc1ccc(NC(=O)CC2SC(N)=NC2=O)cc1` (configuration not stated), the EC50 is > 447 µM and the IC50 was > 447 µM.
As to `Nc1ccc(S(=O)Cc2ccc(C(=O)O)cc2[N+](=O)[O-])cc1` (configuration not stated), the EC50 is > 776 µM and the IC50 was > 776 µM.
In the case of `COc1ccc(C2SC(=S)N(Cc3ccc(Cl)cc3)N2Cc2ccc(Cl)cc2)cc1` (configuration not stated), the EC50 is > 200 µM and the IC50 was found to be 34.7 µM.
With `Cc1c(Cl)cccc1NC(=O)C(=O)C1C(=O)NC(=O)NC1=O`, the EC50 is > 398 µM and the IC50 is > 398 µM.
For `N=C(N)C1CN(CCc2cnc[nH]2)C(=O)NC1=O` (configuration not stated), the EC50 is > 200 µM and the IC50 is > 200 µM.
On to `C/C(=C/C(=O)Nn1c(Cc2ccccc2)n[nH]c1=O)C(=O)O`, for which the EC50 is > 200 µM and the IC50 was > 200 µM.
Consider `CC(C)(C)C1COP(=S)(c2ccccc2)OC1` (configuration not stated), for which the EC50 was > 69.2 µM and the IC50 is > 69.2 µM.
Turning to `N=C(c1ccccc1)N1CCCCC1`, the result was inactive.
Take `CCOC(=O)c1cccc2c(Nc3ccc(S(=O)(=O)Nc4cc(C)on4)cc3)c3ccccc3nc12`: the EC50 is > 200 µM and the IC50 stood at 25.1 µM.
Consider `Cc1ccc(SCc2nc3ccccc3c(C)[n+]2[O-])cc1`, for which the EC50 is 9.33 µM and the IC50 turned out to be 49 µM.
Turning to `O=C(NCCNCCNCCNC(=O)c1cc(-c2ccccc2)nc2ccccc12)c1cc(-c2ccccc2)nc2ccccc12`, the EC50 is > 20 µM and the IC50 is 3.31 µM.
On the same counts, the results for `COC(=O)C(C(=O)C(=O)Nc1ccc(N)cc1[N+](=O)[O-])c1nc2ccc(Cl)cc2[nH]c1=O` (configuration not stated) are > 40.7 µM and 30.9 µM.
On the same counts, the results for `O=C(O)c1ccccc1C(=O)OC1CC2CCC1C2` (configuration not stated) are > 200 µM and > 200 µM.
Regarding `COC(=O)/C(=N\NC(N)=S)C(C(=O)OC)C(=O)C(=O)Nc1ccc(C)cc1` (configuration not stated), the EC50 was > 66.1 µM and the IC50 was > 66.1 µM.
Take `Nc1ncc(C2[C@H](CNC(=O)c3cc(Br)c[nH]3)C(CNC(=O)c3cc(Br)c[nH]3)[C@@H]2c2cnc(N)[nH]2)[nH]1` (some centres not stated): the outcome was active.
Take `COC(=O)C1(O)C(c2ccccc2)NC2(C)CCCC21` (configuration not stated): the EC50 is > 200 µM and the IC50 was > 200 µM.
For `COC(=O)[C@@H]1C2OC(C)(C)OC2CN1C(=O)OCc1ccccc1` (some centres not stated), the result was inactive.
On to `COC(=O)C(C)NC(=O)C(CCSC)NC(=O)C(Cc1ccccc1)NC(=O)OC(C)(C)C` (stereo not drawn) (Boc-Phe-Met-Ala-OMe; configuration not given here), for which the EC50 is > 200 µM.
As for `COc1ccccc1N/N=c1\c2nc3ccccc3nc1n(-c1ccccc1C)c(=S)n2-c1ccccn1`, the EC50 was > 200 µM and the IC50 was > 100 µM.
On the same counts, the results for `O=C(CNc1cccc([N+](=O)[O-])c1)Nn1c(-c2ccccc2)nc2ccccc2c1=O` are > 20 µM and 1.05 µM.
For the compound `CCP(=O)(CC)C(Cl)(Cl)C(O)C(Cl)(Cl)Cl` (configuration not stated), the EC50 was > 200 µM and the IC50 was > 200 µM.
For the compound `COc1ccc2c(c1OC)C(=O)c1cnccc1C2=O`, the EC50 is 60.3 µM and the IC50 stood at 132 µM.
On to `C1CCN2CC3CONC3C2C1` (configuration not stated), for which the EC50 is > 1480 µM and the IC50 was > 1480 µM.
Take `Cc1cccc(-c2nc(=S)[nH][nH]2)c1`: the EC50 was > 955 µM and the IC50 was 417 µM.
Regarding `CC1(C(=O)NCCN(CCNC(=O)C2(C)CC3(C)CC(C)(C2)C(=O)NC3=O)CCNC(=O)C2(C)CC3(C)CC(C)(C2)C(=O)NC3=O)CC2(C)CC(C)(C1)C(=O)NC2=O` (configuration not stated), the result was inactive.
On to `CN1CN(c2ccccc2)C2(CCN(CCc3cc4ccccc4o3)CC2)C1=O`, for which the EC50 is > 200 µM and the IC50 was 8.13 µM.
With `CN=S(=O)(c1ccccc1)c1ccccc1`, the EC50 was 56.2 µM and the IC50 is > 200 µM.
Take `Cc1ccc(-c2cc(=S)n(-c3ccccc3)c3nc(=S)n(-c4ccccc4)c(N)c23)cc1`: the EC50 is > 200 µM and the IC50 turned out to be 138 µM.
As for `C#C[C@@]1(O)CCCC2=CC(=O)C[C@]21C`, the outcome was inactive.
Turning to `CC(C#N)(NO)C(C)(C#N)NO` (configuration not stated), the EC50 was > 200 µM and the IC50 was > 200 µM.
With `COc1ccc(CCn2cncn2)cc1`, the EC50 was > 1050 µM and the IC50 was > 1050 µM.
For the compound `OCC(O)C1OCOC2COCOC21` (configuration not stated), the EC50 is > 200 µM and the IC50 is > 200 µM.
Consider `COC(=O)[C@H]1C(=CBr)[C@@H]1C(=O)OC.[C-]#[O+].[C-]#[O+].[C-]#[O+].[C-]#[O+].[Fe]`, for which the EC50 was > 200 µM and the IC50 is > 200 µM.
`C=CCC1(C2=C(C)C(=O)c3ccccc32)CCCS1` (configuration not stated): the EC50 was > 200 µM and the IC50 was determined as 31.6 µM.
Turning to `Nc1ccc2cc(S(=O)(=O)O)cc(O)c2c1N=Nc1ccc(-c2ccc(N=Nc3c(S(=O)(=O)O)cc4cc(S(=O)(=O)O)c(N=Nc5ccc([N+](=O)[O-])cc5)c(N)c4c3O)cc2)cc1`, the outcome was inactive.
In the case of `CC(C)(C)OC(=O)CNC(=O)C(Cc1ccccc1)NC(=O)C(CSC(c1ccccc1)(c1ccccc1)c1ccccc1)NC(=O)CNC(=O)C(Cc1ccccc1)NC(=O)CNC(=O)C(CSC(c1ccccc1)c1ccccc1)NC(=O)C(CSC(c1ccccc1)(c1ccccc1)c1ccccc1)NC(=O)OCc1ccccc1` (configuration not stated) (Cbz-C(Trt)C(Benzhydryl)GFGC(Trt)FG-OtBu; configuration not given here), the EC50 is > 8.32 µM and the IC50 is > 8.32 µM.
For `CC1(C)C2CC(O)C1(C)CC2=O` (configuration not stated), the EC50 was > 200 µM and the IC50 stood at 170 µM.
In the case of `Oc1ccccc1-c1nc2sc(-c3ccccc3O)nc2s1`, the EC50 is > 200 µM and the IC50 is 132 µM.
Turning to `COc1ccc(Cc2cnc(N)nc2N)cc1OC`, the outcome was inactive.
Regarding `CC(=O)O[C@H]1CC[C@H]2[C@@H]3CCC4=C/C(=N/OCCN(C)C)CC[C@]4(C)[C@H]3CC[C@]12C`, the EC50 was > 200 µM and the IC50 was determined as 0.955 µM.
Consider `CC(NC(=O)C(Cc1ccc(OC(=O)c2ccccc2)cc1)NC(=O)OC(C)(C)C)C(=O)NCC(=O)NC(Cc1ccccc1)C(=O)NN` (configuration not stated), for which the EC50 was > 200 µM and the IC50 was determined as 11.7 µM.
On the same counts, the results for `CCCCCCCC1C(C)c2c([nH]c3ccccc23)C2C(=O)N(c3ccc(OC)cc3)C(=O)C21` (configuration not stated) are > 200 µM and 10.2 µM.
`Cc1ccc(C2SCC(=O)N2c2ccc(-c3ccc(-n4c(-c5ccccc5)nc5ccccc5c4=O)cc3)cc2)cc1` (configuration not stated): the EC50 is > 191 µM and the IC50 was found to be 35.5 µM.
In the case of `Cn1c2c(c3ccccc31)CCN(CCN1CCN(c3cccc(Cl)c3)CC1)C2=O`, the EC50 is > 8.51 µM and the IC50 is > 8.51 µM.
`CC1CSS(=O)O1` (configuration not stated): the EC50 was > 200 µM and the IC50 was > 200 µM.
With `CCOP(=O)(OCC)/C(C#N)=C/c1cnc(C)[nH]1`, the EC50 was > 200 µM and the IC50 was > 200 µM.
Regarding `COc1cc(C2C(C(=O)Nc3ccc([N+](=O)[O-])cc3)=C(C)NC(C)=C2C(=O)Nc2ccc([N+](=O)[O-])cc2)ccc1O`, the EC50 was > 9.33 µM and the IC50 was > 9.33 µM.
Turning to `C=CC[C@]12CC[C@H](O)[C@@]1(C)CCC(=O)/C2=N\N`, the outcome was inactive.
For the compound `CC(=O)Nc1c(C#N)c2n(c1C(=O)Nc1ccc(Cl)cc1)CCC2`, the EC50 is > 200 µM and the IC50 is > 200 µM.
Turning to `N#CC12Cc3cc4c(cc3-c3cccc(c31)CCN2C(=O)c1ccccc1)OCO4` (configuration not stated), the result was inactive.
Regarding `CCCCCCNCCc1cnc[nH]1`, the EC50 is > 200 µM and the IC50 is > 200 µM.
As to `CN1CC2(c3ccccc3)CN(C)CC(c3ccccc3)(C1)C2=O`, the EC50 was > 112 µM and the IC50 was > 112 µM.
On to `CC12C3C4C1C1C2C3C41CO` (configuration not stated), for which the EC50 was > 200 µM and the IC50 is > 200 µM.
As to `c1ccc(COc2ccc(C[P+](c3ccccc3)(c3ccccc3)c3ccccc3)cc2)cc1`, the EC50 was > 20 µM and the IC50 turned out to be 0.324 µM.
For `CC(=O)n1c2ccccc2c2nc3nc(Oc4ccc(C)cc4)c4ccccc4c3cc21`, the EC50 was > 6.61 µM and the IC50 is > 6.61 µM.
For the compound `Cc1ccc(N=C2SC(=NN(C)C)SC2=Nc2ccc(C)cc2)cc1`, the EC50 was > 200 µM and the IC50 was > 200 µM.
For the compound `O=C(O)c1cccc(C(=O)c2ccccc2)c1`, the EC50 is > 200 µM and the IC50 was > 200 µM.
With `CCN(CC)c1ccc2c(c1)N=C1N=CC=CN1C2(c1ccc(N(C)C)cc1)c1ccc(N(C)C)cc1`, the outcome was inactive.
For the compound `COc1ccc(-c2cc(-c3ccccc3)c(C#N)c(=O)n2C2OC(CO)C(O)C(O)C2O)cc1` (configuration not stated), the EC50 is > 21.4 µM and the IC50 was > 21.4 µM.
With `COc1cccc(C=O)c1[O-].COc1cccc(C=O)c1[O-].[Zn+2]`, the EC50 was > 676 µM and the IC50 was 21.9 µM.
As for `COC(=O)c1ccc(Cc2ccc(C(=O)OC)o2)o1`, the EC50 is > 191 µM and the IC50 was > 191 µM.
Take `Cc1ccc(C)n1-c1ccccc1C1C=Cn2c(=O)oc3c(OC(C)C)c(OC(C)C)c(O)c1c32` (configuration not stated): the EC50 was > 200 µM and the IC50 was determined as 16.2 µM.
On the same counts, the results for `COc1ccc(C[C@H]2C(=O)OC[C@@H]2Cc2ccc(OC)c(OC)c2)cc1` are > 200 µM and 24 µM.
Take `COc1cc(C2SC(N)=Nc3c2c(C)nn3C(=O)Cc2ccccc2)cc(OC)c1OC` (configuration not stated): the EC50 is 49 µM and the 50% inhibitory concentration (IC50) is > 200 µM.
On the same counts, the results for `CCN(CC)CC(=O)Nc1ccc(Cl)cc1C(O)c1ccccc1` (configuration not stated) are > 200 µM and 120 µM.
